This passage reports Kd results from article PMC6128652, “Structure of the Cladosporium fulvum Avr4 effector in complex with (GlcNAc)6 reveals the ligand-binding mechanism and uncouples its intrinsic function from recognition by the Cf-4 resistance protein” (PLoS Pathogens, 2018).

Details in all cases: n = 3
The target of one assay is T1, D94A (Fulvia fulva, UniProt Q00363, D94A).
T1 construct: gene AVR4; true mature form Lys30-Gln115, E. coli Rosetta-gami B
T1 sequence (Q00363 30-115 D94A): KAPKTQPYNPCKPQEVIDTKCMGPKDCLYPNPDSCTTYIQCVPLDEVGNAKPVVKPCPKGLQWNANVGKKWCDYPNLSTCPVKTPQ
In words: Isothermal titration calorimetry, (GlcNAc)6 titrated into protein in 10 mM Bis-Tris, pH 6.5, 100 mM NaCl, individual binding site model; temperature not given. Here is the method:
(§1) All ITC experiments were performed on a TA Instruments low volume NanoITC with a 186uL reaction cell and a reference cell filled with degassed Milli-Q grade water. Reactions were run in a buffer containing 10mM Bis-Tris, pH 6.5, 100 mM NaCl. The reservoir solution was filled with protein solution and continuously stirred while Chitin hexasaccharide solutions titrated in 2.5μL aliquots for 19 injections, with an initial 1μL injection, for a total injection volume of 48.5μL. The carbohydrate solutions were made by dissolving the dry powder in buffer to a concentration of 20mM (confirmed using methods described above) and then diluted to the working concentration using the final buffer exchange flow through to match the buffers as closely as possible. The integrated heats, after correction for the heat of dilution were analyzed using the NanoAnalyze software from […]. An individual binding site model was used to fit the binding isotherm. All experiments were replicated a minimum of three times.
(§2) The parameters remained similar irrespectively of whether or not the purification tag was removed from the protein or whether a reverse titration was run, in which concentrated CfAvr4 was titrated into a dilute solution of (GlcNAc)6, with no evidence of allosteric or dimer dissociation (S2 Table and S6 Fig). The values are also in good agreement with previously reported data except for the stoichiometric ratio [9]. […] Due to this discrepancy, we took great care to verify the concentration of CfAvr4 using a Bradford assay, and quantitated the carbohydrate concentration.
(§3) A stock solution of the monomer of N-acetylglucosamine was prepared by dissolving the dry powder in a buffer containing 10 mM Bis-Tris, pH 6.5, 100 mM NaCl to a concentration of 0.100 g/L using analytic techniques. Standard solution of 0, 0.010, 0.025, 0.050, 0.075 g/L were prepared by serial dilutions. Using glass test tubes and pipets, 100 μL of each standard was mixed with 300μL of concentrated sulfuric acid and vortexed for 10 sec to mix. Solutions were incubated at RT for 10 min and then placed on ice to stop the reaction. […] Analytically prepared solution of the di- and tri-saccharide scaled linearly to the calibration curve. To determine the concentration of the chitin hexasaccharide solutions used in ITC, the solutions were diluted into the dynamic range of the calibration curve (S12 Fig) and subjected to the above procedure.

The target in another assay is T2, K84A (Fulvia fulva, UniProt Q00363, K84A).
T2 construct: gene AVR4; true mature form Lys30-Gln115, E. coli Rosetta-gami B
T2 sequence (Q00363 30-115 K84A): T1 sequence (Q00363 30-115 D94A) with K55A, A65D
Described as above. Here is the method: as §1, §2, §3

A further assay has as its target T3, M51A (Fulvia fulva, UniProt Q00363, M51A).
T3 construct: gene AVR4; true mature form Lys30-Gln115, E. coli Rosetta-gami B
T3 sequence (Q00363 30-115 M51A): T1 sequence (Q00363 30-115 D94A) with M22A, A65D
The assay is described as above. Here is the method: as §1, §2, §3

A further assay deals with T4, N93A (Fulvia fulva, UniProt Q00363, N93A).
T4 construct: gene AVR4; true mature form Lys30-Gln115, E. coli Rosetta-gami B
T4 sequence (Q00363 30-115 N93A): T1 sequence (Q00363 30-115 D94A) with N64A, A65D
The description is as above. Here is the method:
as §1, §2, §3

The target of another assay is T5, N95A (Fulvia fulva, UniProt Q00363, N95A).
T5 construct: gene AVR4; true mature form Lys30-Gln115, E. coli Rosetta-gami B
T5 sequence (Q00363 30-115 N95A): T1 sequence (Q00363 30-115 D94A) with A65D, N66A
The description is as above. Here is the method: as §1, §2, §3

In the next assay the target is T6, P53A (Fulvia fulva, UniProt Q00363, P53A).
T6 construct: gene AVR4; true mature form Lys30-Gln115, E. coli Rosetta-gami B
T6 sequence (Q00363 30-115 P53A): T1 sequence (Q00363 30-115 D94A) with P24A, A65D
Described as above. Here is the method:
as §1, §2, §3

For a further assay, the target named is T7, P87A (Fulvia fulva, UniProt Q00363, P87A).
T7 construct: gene AVR4; true mature form Lys30-Gln115, E. coli Rosetta-gami B
T7 sequence (Q00363 30-115 P87A): T1 sequence (Q00363 30-115 D94A) with P58A, A65D
The description is as above. Here is the method:
as §1, §2, §3

The target of another assay is T8, Q69N (Fulvia fulva, UniProt Q00363, Q69N).
T8 construct: gene AVR4; true mature form Lys30-Gln115, E. coli Rosetta-gami B
T8 sequence (Q00363 30-115 Q69N): T1 sequence (Q00363 30-115 D94A) with Q40N, A65D
The description is as above. Here is the method: as §1, §2, §3

Assay [1] has as its target T9, WT-CfAvr4 (Fulvia fulva, UniProt Q00363).
T9 construct: gene AVR4; true mature form Lys30-Gln115, N-terminal two 6x His tags and rhinovirus 3C site (tag retained, by contrast with the w/o tag row), E. coli Rosetta-gami B
Described as above. The procedure: as §1, §2, §3

The next assay deals with T10, WT-CfAvr4 w/o tag (Fulvia fulva, UniProt Q00363).
T10 construct: gene AVR4; true mature form Lys30-Gln115, purification tag removed with rhinovirus 3C protease, E. coli Rosetta-gami B
The description is as above. The procedure: as §1, §2, §3

In another assay the target is T11, Y103F (Fulvia fulva, UniProt Q00363, Y103F).
T11 construct: gene AVR4; true mature form Lys30-Gln115, E. coli Rosetta-gami B
T11 sequence (Q00363 30-115 Y103F): T1 sequence (Q00363 30-115 D94A) with A65D, Y74F
The description is as above. The procedure: as §1, §2, §3

The next assay addresses T12, Y67F (Fulvia fulva, UniProt Q00363, Y67F).
T12 construct: gene AVR4; true mature form Lys30-Gln115, E. coli Rosetta-gami B
T12 sequence (Q00363 30-115 Y67F): T1 sequence (Q00363 30-115 D94A) with Y38F, A65D
Described as above. The procedure:
as §1, §2, §3

Assay [2] addresses T9, WT-CfAvr4. In words: Isothermal titration calorimetry, reverse titration with concentrated CfAvr4 titrated into dilute (GlcNAc)6, 10 mM Bis-Tris, pH 6.5, 100 mM NaCl; temperature not given. It is filed as binding.
From the text: as §2
All ITC experiments were performed on a TA Instruments low volume NanoITC with a 186uL reaction cell and a reference cell filled with degassed Milli-Q grade water. Reactions were run in a buffer containing 10mM Bis-Tris, pH 6.5, 100 mM NaCl. The reservoir solution was filled with protein solution and continuously stirred while Chitin hexasaccharide solutions titrated in 2.5μL aliquots for 19 injections, with an initial 1μL injection, for a total injection volume of 48.5μL. […] The integrated heats, after correction for the heat of dilution were analyzed using the NanoAnalyze software from ITC Technologies. […]

Where a chain is given by its changes, count along the chain named.

T9 sequence (Q00363 30-115): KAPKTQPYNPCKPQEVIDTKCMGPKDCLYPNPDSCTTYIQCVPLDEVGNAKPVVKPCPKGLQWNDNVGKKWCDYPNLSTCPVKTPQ
T10 sequence (Q00363 30-115): as above

As for `CC(=O)N[C@H]1[C@H](O[C@H]2[C@H](O)[C@@H](NC(C)=O)[C@H](O[C@H]3[C@H](O)[C@@H](NC(C)=O)C(O)O[C@@H]3CO)O[C@@H]2CO)O[C@H](CO)[C@@H](O[C@@H]2O[C@H](CO)[C@@H](O[C@@H]3O[C@H](CO)[C@@H](O[C@@H]4O[C@H](CO)[C@@H](O)[C@H](O)[C@H]4NC(C)=O)[C@H](O)[C@H]3NC(C)=O)[C@H](O)[C@H]2NC(C)=O)[C@@H]1O` (stereo partly drawn) [(GlcNAc)6, chitohexaose (chitin hexasaccharide, beta-1,4-linked N-acetylglucosamine hexamer)], the dissociation constant (Kd) was determined as 37.6 µM at D94A; 121 µM on K84A; 9.2 µM on M51A; 44.7 µM at N93A; 18.8 µM on N95A; 11.3 µM at P53A. For the same molecule, the Kd was 17.9 µM at P87A; 131 µM on Q69N; 7.63 µM at WT-CfAvr4 [1]; 6.73 µM at WT-CfAvr4 w/o tag; 12.2 µM at Y103F; 6.86 µM at Y67F. In addition, the Kd on WT-CfAvr4 [2] was 7.16 µM.
